Assay results reported in ChEMBL document CHEMBL3991601, “The target landscape of clinical kinase drugs” (Science, 2017).
Calls of active or inactive are those of the source. Cut-off read from the data, not from the text of the source, for most assays here: actives have a measured Kd and inactives only a lower limit.

Legend:
[1] = target: T1, Serine/threonine-protein kinase TAO1 (Homo sapiens, UniProt Q7L7X3)
T1 sequence (Q7L7X3 whole entry): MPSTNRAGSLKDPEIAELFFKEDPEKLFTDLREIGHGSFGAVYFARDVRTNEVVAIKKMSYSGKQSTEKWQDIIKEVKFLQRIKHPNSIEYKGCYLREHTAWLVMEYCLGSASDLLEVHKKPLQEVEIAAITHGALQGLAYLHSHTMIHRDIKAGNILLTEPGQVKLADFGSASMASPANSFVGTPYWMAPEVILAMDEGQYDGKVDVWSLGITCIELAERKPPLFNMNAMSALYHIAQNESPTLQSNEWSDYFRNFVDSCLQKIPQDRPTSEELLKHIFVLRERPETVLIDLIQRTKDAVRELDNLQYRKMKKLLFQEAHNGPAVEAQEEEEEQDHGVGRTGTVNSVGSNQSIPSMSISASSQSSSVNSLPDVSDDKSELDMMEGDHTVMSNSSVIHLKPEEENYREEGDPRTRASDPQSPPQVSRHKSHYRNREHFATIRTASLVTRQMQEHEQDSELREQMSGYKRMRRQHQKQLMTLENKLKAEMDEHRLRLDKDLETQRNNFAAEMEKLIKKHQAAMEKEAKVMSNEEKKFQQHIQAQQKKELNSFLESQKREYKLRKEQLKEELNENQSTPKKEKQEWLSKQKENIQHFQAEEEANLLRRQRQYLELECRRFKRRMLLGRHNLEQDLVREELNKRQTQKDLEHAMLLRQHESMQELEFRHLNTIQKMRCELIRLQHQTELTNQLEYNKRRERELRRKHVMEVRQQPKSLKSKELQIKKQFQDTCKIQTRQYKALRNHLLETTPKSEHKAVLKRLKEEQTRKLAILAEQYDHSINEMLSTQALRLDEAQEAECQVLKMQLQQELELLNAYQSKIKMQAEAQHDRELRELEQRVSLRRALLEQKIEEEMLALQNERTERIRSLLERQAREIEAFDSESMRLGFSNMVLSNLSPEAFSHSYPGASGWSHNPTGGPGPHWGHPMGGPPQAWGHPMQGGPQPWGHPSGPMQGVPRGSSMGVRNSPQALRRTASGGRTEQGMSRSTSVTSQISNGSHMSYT

[2] = target: Dual specificity mitogen-activated protein kinase kinase 2 (Homo sapiens, UniProt P36507)
[3] = target: T2, NUAK family SNF1-like kinase 2 (Homo sapiens, UniProt Q9H093)
T2 sequence (Q9H093 whole entry): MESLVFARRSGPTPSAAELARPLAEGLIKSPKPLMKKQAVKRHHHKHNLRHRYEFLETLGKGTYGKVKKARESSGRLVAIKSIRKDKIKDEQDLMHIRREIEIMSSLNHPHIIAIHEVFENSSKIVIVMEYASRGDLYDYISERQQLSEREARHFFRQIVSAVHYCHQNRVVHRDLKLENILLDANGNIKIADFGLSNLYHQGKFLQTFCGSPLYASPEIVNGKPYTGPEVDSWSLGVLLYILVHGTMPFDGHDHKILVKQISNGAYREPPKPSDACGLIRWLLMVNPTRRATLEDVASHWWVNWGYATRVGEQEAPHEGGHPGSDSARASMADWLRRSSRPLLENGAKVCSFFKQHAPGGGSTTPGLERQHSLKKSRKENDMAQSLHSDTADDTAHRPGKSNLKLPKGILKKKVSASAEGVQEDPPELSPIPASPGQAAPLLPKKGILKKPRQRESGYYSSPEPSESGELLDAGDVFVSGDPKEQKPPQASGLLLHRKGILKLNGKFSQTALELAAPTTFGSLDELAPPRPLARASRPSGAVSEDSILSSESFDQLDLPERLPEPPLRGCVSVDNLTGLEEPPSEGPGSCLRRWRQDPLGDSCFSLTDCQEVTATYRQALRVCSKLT

[4] = target: T3, Serine/threonine-protein kinase PLK4 (Homo sapiens, UniProt O00444)
T3 sequence (O00444 whole entry): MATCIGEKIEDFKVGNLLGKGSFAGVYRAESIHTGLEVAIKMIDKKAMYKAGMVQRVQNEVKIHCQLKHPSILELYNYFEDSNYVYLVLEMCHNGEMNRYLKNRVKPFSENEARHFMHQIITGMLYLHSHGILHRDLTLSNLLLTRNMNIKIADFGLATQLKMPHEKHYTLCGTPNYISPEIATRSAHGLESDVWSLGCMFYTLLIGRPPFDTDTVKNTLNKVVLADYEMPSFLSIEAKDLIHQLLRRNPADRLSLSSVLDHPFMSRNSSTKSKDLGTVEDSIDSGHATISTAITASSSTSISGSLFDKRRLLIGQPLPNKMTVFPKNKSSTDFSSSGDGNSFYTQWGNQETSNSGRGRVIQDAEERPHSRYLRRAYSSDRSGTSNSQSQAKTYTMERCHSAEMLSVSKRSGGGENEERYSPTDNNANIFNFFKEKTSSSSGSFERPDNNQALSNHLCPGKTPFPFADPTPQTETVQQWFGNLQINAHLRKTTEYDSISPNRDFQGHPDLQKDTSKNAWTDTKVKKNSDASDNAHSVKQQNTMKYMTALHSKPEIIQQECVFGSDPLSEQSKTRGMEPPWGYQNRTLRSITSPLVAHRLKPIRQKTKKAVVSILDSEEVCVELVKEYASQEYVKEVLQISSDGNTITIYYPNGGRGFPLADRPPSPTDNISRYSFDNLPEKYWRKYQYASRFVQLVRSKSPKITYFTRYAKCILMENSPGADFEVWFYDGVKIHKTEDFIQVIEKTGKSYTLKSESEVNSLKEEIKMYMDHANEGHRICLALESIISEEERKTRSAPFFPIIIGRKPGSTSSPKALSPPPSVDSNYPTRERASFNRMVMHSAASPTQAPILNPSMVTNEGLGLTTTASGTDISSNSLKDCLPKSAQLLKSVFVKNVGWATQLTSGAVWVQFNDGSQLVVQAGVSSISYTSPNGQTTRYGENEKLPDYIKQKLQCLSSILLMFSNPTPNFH

[5] = target: Citron Rho-interacting kinase (Homo sapiens, UniProt O14578)
Chain of Citron Rho-interacting kinase (O14578 whole entry): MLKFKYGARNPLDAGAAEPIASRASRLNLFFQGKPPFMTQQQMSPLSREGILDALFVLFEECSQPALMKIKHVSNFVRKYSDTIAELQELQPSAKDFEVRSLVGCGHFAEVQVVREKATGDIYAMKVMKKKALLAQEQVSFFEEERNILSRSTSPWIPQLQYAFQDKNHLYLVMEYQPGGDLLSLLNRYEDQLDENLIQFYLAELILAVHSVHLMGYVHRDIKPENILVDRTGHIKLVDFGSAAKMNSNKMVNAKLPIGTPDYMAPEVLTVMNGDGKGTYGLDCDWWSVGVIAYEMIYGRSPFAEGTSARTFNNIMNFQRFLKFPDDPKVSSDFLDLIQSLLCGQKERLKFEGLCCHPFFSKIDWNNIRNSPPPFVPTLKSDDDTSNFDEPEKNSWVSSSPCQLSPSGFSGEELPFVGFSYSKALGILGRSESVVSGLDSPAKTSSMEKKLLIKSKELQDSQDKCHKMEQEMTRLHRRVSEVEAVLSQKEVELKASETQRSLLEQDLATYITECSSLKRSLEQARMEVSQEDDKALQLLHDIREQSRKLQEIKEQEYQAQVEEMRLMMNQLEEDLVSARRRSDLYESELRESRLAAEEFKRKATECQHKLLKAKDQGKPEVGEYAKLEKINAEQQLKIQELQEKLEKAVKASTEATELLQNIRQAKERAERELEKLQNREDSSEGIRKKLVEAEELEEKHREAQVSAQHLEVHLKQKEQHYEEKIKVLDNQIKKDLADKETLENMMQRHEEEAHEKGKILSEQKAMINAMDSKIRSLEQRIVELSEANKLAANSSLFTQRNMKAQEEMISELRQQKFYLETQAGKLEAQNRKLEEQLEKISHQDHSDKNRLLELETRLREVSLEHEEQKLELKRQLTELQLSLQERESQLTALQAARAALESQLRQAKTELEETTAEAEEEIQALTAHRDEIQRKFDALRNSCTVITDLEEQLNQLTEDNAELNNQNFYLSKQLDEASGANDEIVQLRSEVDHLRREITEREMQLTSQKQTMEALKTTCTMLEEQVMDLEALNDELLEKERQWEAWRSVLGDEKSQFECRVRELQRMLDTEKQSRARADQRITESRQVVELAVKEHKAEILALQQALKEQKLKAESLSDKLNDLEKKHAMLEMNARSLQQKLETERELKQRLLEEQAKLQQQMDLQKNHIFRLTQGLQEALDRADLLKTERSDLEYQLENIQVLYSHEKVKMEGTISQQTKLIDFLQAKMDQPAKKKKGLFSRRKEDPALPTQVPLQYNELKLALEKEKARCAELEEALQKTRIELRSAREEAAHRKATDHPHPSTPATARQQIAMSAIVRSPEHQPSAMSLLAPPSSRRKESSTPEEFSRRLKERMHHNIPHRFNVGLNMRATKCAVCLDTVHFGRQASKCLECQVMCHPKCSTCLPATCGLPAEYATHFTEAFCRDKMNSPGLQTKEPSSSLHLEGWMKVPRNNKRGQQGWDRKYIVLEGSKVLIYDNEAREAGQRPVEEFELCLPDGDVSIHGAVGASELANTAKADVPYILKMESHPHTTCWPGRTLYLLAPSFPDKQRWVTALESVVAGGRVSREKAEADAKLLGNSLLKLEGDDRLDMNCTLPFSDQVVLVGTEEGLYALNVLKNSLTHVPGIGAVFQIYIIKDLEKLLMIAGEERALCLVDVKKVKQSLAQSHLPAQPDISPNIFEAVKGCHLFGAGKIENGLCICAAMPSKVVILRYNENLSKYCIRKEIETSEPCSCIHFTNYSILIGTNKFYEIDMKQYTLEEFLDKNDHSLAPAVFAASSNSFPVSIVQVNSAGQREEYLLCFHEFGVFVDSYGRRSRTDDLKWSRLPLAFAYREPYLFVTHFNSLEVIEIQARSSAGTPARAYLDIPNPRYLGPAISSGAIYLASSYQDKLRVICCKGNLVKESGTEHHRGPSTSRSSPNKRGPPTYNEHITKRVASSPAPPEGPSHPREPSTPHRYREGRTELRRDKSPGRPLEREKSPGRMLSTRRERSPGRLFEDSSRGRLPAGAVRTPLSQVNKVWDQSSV

[6] = target: Chromodomain-helicase-DNA-binding protein 4 (Homo sapiens, UniProt Q14839)
Chain of Chromodomain-helicase-DNA-binding protein 4 (Q14839 whole entry): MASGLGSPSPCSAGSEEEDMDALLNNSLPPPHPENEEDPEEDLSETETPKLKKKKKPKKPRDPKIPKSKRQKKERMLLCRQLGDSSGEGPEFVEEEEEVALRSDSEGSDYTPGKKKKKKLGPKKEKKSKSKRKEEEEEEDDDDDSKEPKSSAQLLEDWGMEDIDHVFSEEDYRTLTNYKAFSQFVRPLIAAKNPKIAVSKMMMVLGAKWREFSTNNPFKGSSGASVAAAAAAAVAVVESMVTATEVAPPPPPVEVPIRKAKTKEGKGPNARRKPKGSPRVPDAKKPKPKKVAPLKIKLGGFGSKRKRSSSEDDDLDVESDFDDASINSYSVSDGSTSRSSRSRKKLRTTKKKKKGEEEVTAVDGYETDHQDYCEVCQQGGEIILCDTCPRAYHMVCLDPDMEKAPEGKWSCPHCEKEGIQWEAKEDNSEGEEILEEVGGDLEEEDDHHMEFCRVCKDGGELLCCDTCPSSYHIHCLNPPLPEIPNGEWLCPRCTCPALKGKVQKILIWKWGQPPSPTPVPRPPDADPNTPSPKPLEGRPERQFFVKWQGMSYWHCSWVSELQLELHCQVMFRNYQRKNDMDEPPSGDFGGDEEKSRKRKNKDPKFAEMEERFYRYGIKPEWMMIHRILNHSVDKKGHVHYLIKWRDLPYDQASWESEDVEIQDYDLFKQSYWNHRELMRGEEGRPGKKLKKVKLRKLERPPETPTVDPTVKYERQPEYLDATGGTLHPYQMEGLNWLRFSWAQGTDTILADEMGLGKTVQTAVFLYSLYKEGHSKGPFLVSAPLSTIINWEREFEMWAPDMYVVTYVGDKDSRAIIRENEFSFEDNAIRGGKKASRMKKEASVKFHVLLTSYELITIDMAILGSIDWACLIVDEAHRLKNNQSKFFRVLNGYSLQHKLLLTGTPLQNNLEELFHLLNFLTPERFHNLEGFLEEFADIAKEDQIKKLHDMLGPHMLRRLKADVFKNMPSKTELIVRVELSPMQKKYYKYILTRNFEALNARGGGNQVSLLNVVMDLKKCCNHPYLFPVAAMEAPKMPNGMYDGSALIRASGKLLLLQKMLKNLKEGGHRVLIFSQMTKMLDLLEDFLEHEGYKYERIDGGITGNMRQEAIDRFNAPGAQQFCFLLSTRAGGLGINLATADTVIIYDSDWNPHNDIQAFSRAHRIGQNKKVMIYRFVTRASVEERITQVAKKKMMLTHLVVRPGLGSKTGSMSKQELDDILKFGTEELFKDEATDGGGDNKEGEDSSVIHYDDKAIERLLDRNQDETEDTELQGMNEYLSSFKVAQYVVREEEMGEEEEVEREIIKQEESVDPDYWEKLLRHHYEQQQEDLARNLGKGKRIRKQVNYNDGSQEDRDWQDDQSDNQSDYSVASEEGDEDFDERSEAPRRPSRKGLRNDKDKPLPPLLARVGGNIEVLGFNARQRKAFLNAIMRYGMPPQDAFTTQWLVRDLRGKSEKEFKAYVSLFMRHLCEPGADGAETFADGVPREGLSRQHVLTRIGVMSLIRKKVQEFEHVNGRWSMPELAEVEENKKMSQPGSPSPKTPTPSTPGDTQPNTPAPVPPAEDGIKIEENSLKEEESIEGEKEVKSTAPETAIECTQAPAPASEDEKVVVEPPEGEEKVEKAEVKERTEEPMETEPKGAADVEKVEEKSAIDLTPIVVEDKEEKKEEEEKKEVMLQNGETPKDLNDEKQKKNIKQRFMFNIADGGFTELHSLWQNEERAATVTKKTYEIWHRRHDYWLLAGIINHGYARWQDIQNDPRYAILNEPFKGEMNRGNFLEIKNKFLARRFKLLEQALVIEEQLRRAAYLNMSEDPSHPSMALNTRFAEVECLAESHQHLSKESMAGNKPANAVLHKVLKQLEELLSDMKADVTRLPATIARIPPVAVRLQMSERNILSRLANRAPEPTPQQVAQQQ

[7] = target: Mitogen-activated protein kinase kinase kinase kinase 5 (Homo sapiens, UniProt Q9Y4K4)
Chain of Mitogen-activated protein kinase kinase kinase kinase 5 (Q9Y4K4 whole entry): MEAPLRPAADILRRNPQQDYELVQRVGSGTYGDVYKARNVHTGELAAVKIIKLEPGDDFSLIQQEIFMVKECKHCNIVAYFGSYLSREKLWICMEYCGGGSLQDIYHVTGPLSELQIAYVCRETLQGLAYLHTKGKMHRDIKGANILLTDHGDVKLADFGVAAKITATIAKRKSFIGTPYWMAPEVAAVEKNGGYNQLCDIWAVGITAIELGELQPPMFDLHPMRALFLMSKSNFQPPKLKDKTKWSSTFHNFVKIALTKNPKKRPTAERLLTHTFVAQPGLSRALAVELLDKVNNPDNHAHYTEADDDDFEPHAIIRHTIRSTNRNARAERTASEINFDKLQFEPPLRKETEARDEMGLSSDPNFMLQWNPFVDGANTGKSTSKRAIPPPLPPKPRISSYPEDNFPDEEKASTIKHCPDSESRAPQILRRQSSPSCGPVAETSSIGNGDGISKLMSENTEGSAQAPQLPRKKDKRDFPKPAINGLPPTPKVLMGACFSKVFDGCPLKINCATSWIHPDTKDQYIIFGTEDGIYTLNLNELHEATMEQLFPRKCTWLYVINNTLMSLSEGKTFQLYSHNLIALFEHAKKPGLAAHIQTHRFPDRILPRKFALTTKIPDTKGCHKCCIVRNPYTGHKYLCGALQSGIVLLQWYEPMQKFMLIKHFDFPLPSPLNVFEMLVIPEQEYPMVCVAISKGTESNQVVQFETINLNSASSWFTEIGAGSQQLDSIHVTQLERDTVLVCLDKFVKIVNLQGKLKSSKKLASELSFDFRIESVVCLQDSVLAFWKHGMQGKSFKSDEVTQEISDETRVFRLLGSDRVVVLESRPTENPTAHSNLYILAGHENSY
Note: in the data inactive means no Kd found up to 30 µM.

Row | Structure (SMILES) | Kd [1] | Kd [2] | Kd [3] | Kd [4] | Kd [5] | Kd [6] | Kd [7]
1 | O=c1[nH]c([C@@H]2CCCN2)nc2c1oc1ccc(Cl)cc12 | > 30 µM (inactive) | > 30 µM (inactive) | > 30 µM (inactive) | > 30 µM (inactive) | 3.66 µM (active) | > 30 µM (inactive) | > 30 µM (inactive)
2 | Cc1c(NC(=O)OC[C@@H]2COCCN2)cn2ncnc(Nc3ccc4c(cnn4Cc4cccc(F)c4)c3)c12 [AC-480] | > 30 µM (inactive) | > 30 µM (inactive) | > 30 µM (inactive) | > 30 µM (inactive) | > 30 µM (inactive) | > 30 µM (inactive) | > 30 µM (inactive)
3 | CCc1cc2c(cc1N1CCC(N3CCOCC3)CC1)C(C)(C)c1[nH]c3cc(C#N)ccc3c1C2=O [ALECTINIB] | > 30 µM (inactive) | > 30 µM (inactive) | > 30 µM (inactive) | > 30 µM (inactive) | > 30 µM (inactive) | > 30 µM (inactive) | > 30 µM (inactive)
4 | S=C(NCc1ccc2c(c1)OCO2)N1CCN(c2ncnc3c2oc2ccccc23)CC1 [AMUVATINIB] | > 30 µM (inactive) | > 30 µM (inactive) | > 30 µM (inactive) | > 30 µM (inactive) | > 30 µM (inactive) | > 30 µM (inactive) | > 30 µM (inactive)
5 | NC[C@@](O)(c1ccc(Cl)cc1)c1ccc(-c2cn[nH]c2)cc1 [AT-13148] | > 30 µM (inactive) | > 30 µM (inactive) | > 30 µM (inactive) | > 30 µM (inactive) | > 30 µM (inactive) | > 30 µM (inactive) | > 30 µM (inactive)
6 | Cc1cc(Nc2nc(N[C@@H](C)c3ncc(F)cn3)ncc2Cl)n[nH]1 [AZD-1480] | > 30 µM (inactive) | > 30 µM (inactive) | > 30 µM (inactive) | 0.308 µM (active) | > 30 µM (inactive) | > 30 µM (inactive) | > 30 µM (inactive)
7 | COc1ccc(-c2ccc3ncc4c(c3c2)n(-c2ccc(N3CCNCC3)c(C(F)(F)F)c2)c(=O)n4C)cn1 [BGT-226 FREE BASE] | > 30 µM (inactive) | > 30 µM (inactive) | > 30 µM (inactive) | > 30 µM (inactive) | > 30 µM (inactive) | > 30 µM (inactive) | > 30 µM (inactive)
8 | CCOc1ccn(-c2ccc(F)cc2)c(=O)c1C(=O)Nc1ccc(Oc2ccnc(N)c2Cl)c(F)c1 [BMS-777607] | > 30 µM (inactive) | > 30 µM (inactive) | > 30 µM (inactive) | 0.301 µM | > 30 µM (inactive) | > 30 µM (inactive) | > 30 µM (inactive)
9 | COc1cc2nccc(Oc3ccc(NC(=O)C4(C(=O)Nc5ccc(F)cc5)CC4)cc3)c2cc1OC [CABOZANTINIB] | > 30 µM (inactive) | > 30 µM (inactive) | > 30 µM (inactive) | > 30 µM (inactive) | > 30 µM (inactive) | > 30 µM (inactive) | > 30 µM (inactive)
10 | c1cc(OCCN2CCCCC2)cc(-c2n[nH]c3ccc(-c4nc[nH]n4)cc23)c1 [CC-401] | > 30 µM (inactive) | > 30 µM (inactive) | > 30 µM (inactive) | > 30 µM (inactive) | > 30 µM (inactive) | > 30 µM (inactive) | > 30 µM (inactive)
11 | COc1cc2ncnc(Nc3ccc(F)c(Cl)c3)c2cc1NC(=O)/C=C/CN1CCCCC1 [DACOMITINIB ANHYDROUS] | > 30 µM (inactive) | > 30 µM (inactive) | > 30 µM (inactive) | > 30 µM (inactive) | > 30 µM (inactive) | > 30 µM (inactive) | > 30 µM (inactive)
12 | CNC(=O)c1ccc(Nc2ncc(C(F)(F)F)c(NCc3nccnc3N(C)S(C)(=O)=O)n2)cc1 [DEFACTINIB] | 3.23 µM (active) | > 30 µM (inactive) | 0.454 µM | > 30 µM (inactive) | > 30 µM (inactive) | > 30 µM (inactive) | > 30 µM (inactive)
13 | COc1cc(Nc2ncc(F)c(Nc3ccc4c(n3)N(COP(=O)(O)O)C(=O)C(C)(C)O4)n2)cc(OC)c1OC [FOSTAMATINIB] | > 30 µM (inactive) | > 30 µM (inactive) | > 30 µM (inactive) | 0.57 µM (active) | > 30 µM (inactive) | > 30 µM (inactive) | > 30 µM (inactive)
14 | CCc1nc(C(N)=O)c(Nc2ccc(N3CCC(N4CCN(C)CC4)CC3)c(OC)c2)nc1NC1CCOCC1 [GILTERITINIB] | > 30 µM (inactive) | 0.502 µM (active) | > 30 µM (inactive) | 0.018 µM | 2.35 µM (active) | > 30 µM (inactive) | 3.12 µM (active)
15 | Cc1c(Cn2c(C)nc3c(C(=O)O)cc(N4CCOCC4)cc32)cccc1C(F)(F)F [GSK-2636771] | > 30 µM (inactive) | > 30 µM (inactive) | > 30 µM (inactive) | > 30 µM (inactive) | > 30 µM (inactive) | > 30 µM (inactive) | > 30 µM (inactive)
16 | O=S(=O)(c1cccc2c(O)nccc12)N1CCCNCC1 [HYDROXYFASUDIL] | > 30 µM (inactive) | > 30 µM (inactive) | > 30 µM (inactive) | > 30 µM (inactive) | > 30 µM (inactive) | > 30 µM (inactive) | > 30 µM (inactive)
17 | C=CCN(/C=C1/C(=O)O[C@H](COC)[C@@]2(C)C1=C(O)C(=O)C1=C2[C@H](OC(C)=O)C[C@]2(C)C(=O)CC[C@@H]12)CC=C [SONOLISIB] | > 30 µM (inactive) | > 30 µM (inactive) | > 30 µM (inactive) | > 30 µM (inactive) | > 30 µM (inactive) |  | > 30 µM (inactive)
18 | NC(=O)c1ccc(N(C(N)=O)c2c(F)cccc2F)nc1-c1ccc(F)cc1F [VX-702] | > 30 µM (inactive) | > 30 µM (inactive) | > 30 µM (inactive) | > 30 µM (inactive) | > 30 µM (inactive) |  | > 30 µM (inactive)
